Test results reported in patent US9855229B2, “Treatment of respiratory disorders using ROR-gamma inhibitors” (Glenmark Pharmaceuticals S.A., priority 2015, dated 2018).

Legend:
[1] = system: anti CD2/3/28 stimulated IL-17 release from COPD lung BAL cells; test: Ex-vivo IL-17 inhibition from BAL cells of COPD patients; type: cell-based, human; conditions: for IC50: average over patients, 72 hrs
Description: (§1) Ex vivo effect of ROR γt inhibitors were evaluated on tissue samples of eligible subjects suffering from moderate (Stage II), severe (Stage III) to very severe (Stage IV) COPD classified in accordance with GOLD guidelines.
Flexible fiber optic bronchoscopy was performed on 6 eligible subjects (COPD patients) after written valid consent and lignocaine nebulization. Bronchoscope was wedged into bronchus, pre-warmed sterile saline solution instilled into the lobes and bronchoalveolar lavage was collected in sterile container on ice. The filtrate was passed through the cell strainer for removing the particulate matter and centrifuged at 2000 rpm for 10 mins. The BAL cell pellet obtained was further treated with ACK buffer to lyse out the RBCs. Isolated BAL cells per suspended in 10% FBS containing medium.
(§2) PBMCs or BAL cells were seeded at 1-2×10^5 cells per well onto 96-well flat bottomed plates pre-coated with 2 μg/ml of CD2 antibody (LEAF Purified, Biolegend, #300212) and 10 μg/ml of CD3 antibody (Purified NA/LE, BD, #555329). This was followed by the pre-treatment with compounds (concentrations ranging from 1 nM to 10 uM) and roflumilast for one hour prior to addition of 2 μg/ml of soluble CD28 antibody (LEAF purified, Biolegend, #302914). BAL cells and PBMC were then incubated at 37° C. for 72 hrs in 5% CO2 incubator, after which supematants were collected and stored at −80° C. prior to cytokine analysis.
(§3) Supematants were analysed for IL-17A using either the High Sensitivity ELISA (eBioscience), or the LEGEND MAX™ ELISA kit (Biolegend) according to the manufacturer's instructions.
(§4) IL-17 cytokine concentrations in the supematants were determined from the standard curve plot. Percent inhibition for each set treated with compound was calculated using the formula: Percent inhibition={100−(pg/ml of test compound/pg/ml of control×100)}. IC50 values were calculated from the dose response curves by nonlinear regression analysis using GraphPad Prism Software. Results

[2] = target: human RORγ receptor (GST-tagged ROR gamma ligand binding domain) (Homo sapiens (Human), UniProt P51449); test: TR-FRET assay for ROR gamma (Lantha Screen co-activator peptide recruitment); type: biochemical; conditions: 10 nM GST-tagged ROR gamma LBD, read-out: IC50 value for inhibiting human RORγ receptor activity
Text: The compounds described herein were screened for RORγ inhibitor activity using the TR-FRET assay by Lantha Screen as described in JBC 2011, 286, 26: 22707-10; and Drug Metabolism and Disposition 2009, 37, 10: 2069-78
TR-FRET Assay for ROR Gamma:
The assay is based on the principle that binding of the agonist to the RORγ causes a conformational change around helix 12 in the ligand binding domain, resulting in higher affinity for the co-activator peptide. The Fluorescein-D22 co-activator peptide used in the assay is recruited in the absence of a ligand. Binding of the co-activator peptide, causes an increase in the TR-FRET signal while binding of an inhibitor decreases the recruitment of the co-activator peptide, causing a decrease in the TR-FRET signal compared to a control with no test compound. The assay was performed using a two-step procedure, pre-incubation step with the test compound followed by the detection step on addition of the anti-GST tagged terbium (Tb) and fluorescein tagged fluorophores as the acceptor.
Test compounds or reference compounds such as T0901317 (Calbiochem) were dissolved in dimethylsulfoxide (DMSO) to prepare 10.0 mM stock solutions and diluted to the desired concentration. The final concentration of DMSO in the reaction was 4% (v/v). The assay mixture was prepared by mixing 10 nM of the GST-tagged ROR gamma ligand binding domain (LBD) in the assay buffer containing 25 mM HEPES (pH 7.4), 100 mM NaCl, 5 mM DTT and 0.01% BSA with or without the desired concentration of the test compound. The reaction was incubated at 22° C. for 1 hour. The pre-incubation step was terminated by addition of the detection mixture containing 300 nM Fluorescein-D22 co-activator peptide and 10 nM lantha screen Tb-anti GST antibody into the reaction mixture. After shaking for 5 minutes the reaction was further incubated for 1 hour at room temperature and read at 4° C. on an Infinite F500 reader as per the kit instructions (Invitrogen). The inhibition by test compound was calculated based on the TR-FRET ratio of 520/495. The activity was calculated as a percent of the control reaction. IC50 values were calculated from dose response curve by nonlinear regression analysis using GraphPad Prism software.

[3] = system: anti CD2/3/28 stimulated IL-17 release from PBMC of COPD patients; test: Ex-vivo IL-17 inhibition from PBMCs of COPD patients; type: cell-based, human; conditions: for IC50: average over patients, 72 hrs
Description: as §1
Blood was collected in a heparin tube prior to bronchoscopy. 1:1 diluted blood was layered over Histopaque and centrifuged at 400 g, 30 min, at room temperature. The PBMC layer at the interface was aspirated and washed twice with PBS prior to re-suspension in 10% FBS containing media.
as §2, §3, §4

[4] = system: cigarette smoke (CS) induced pulmonary inflammation model in male C57BL6/J mice; test: Cigarette smoke (CS) induced pulmonary inflammation model, 7 days exposure, BAL cell count; type: in vivo; conditions: i.n., od, 7 days CS exposure; for CS mediated increase in macrophages in BALf / CS mediated increase in neutrophils in BALf / CS mediated increase in total leukocyte count (TLC) in BALf: BAL 20 hours after last smoke exposure
Description: Male C57BL/6 mice were exposed alternately to cigarette smoke (10 Kentucky Research Cigarettes 3R4F) and fresh air for 50 minutes (10 seconds cigarette smoke+5 seconds air for 19 puffs per cigarette) twice daily for 7 days in a whole-body box exposure system (SIU24, ProMech Lab Holding AB, Sweden). Test compounds were sonicated in 1×PBS containing 0.005% tween 80. For localized delivery to lung, animals were administered vehicle or test compounds intranasally (i.n.) (40 μl per animal) under isoflurane anaesthesia, once or twice in a day, 1 hour before smoke exposure. Non-drug-treated air and smoked control animals were given vehicle before exposure to fresh air or smoke as appropriate. Animals were sacrificed 20 hours after the last smoke exposure and subjected to bronchoalveolar lavage (BAL). Total and differential BAL cell count was performed.
BAL was performed at approximately 20 hours after final smoke exposure. Animals were euthanized with an overdose of urethane, trachea was exposed and BAL was performed 4 times using 0.3 ml PBS. All aspirates of BAL were pooled and total numbers of cells were determined using a hemocytometer. BALf was centrifuged. The cell pellet collected after centrifugation was resuspended in 15 μL serum and used for preparation of smears.
For cell differentials, slides were stained with Leishman's stain and a differential cell count of 500 cells based on standard morphology was performed manually.
Total and differential cell count was determined in the BALf. The results were expressed as percent inhibition of leukocytes in BALf. The change in the treatments was statistically evaluated by ANOVA followed by Dunnett's multiple comparisons test.

Chain of human RORγ receptor (GST-tagged ROR gamma ligand binding domain) (P51449 269-508): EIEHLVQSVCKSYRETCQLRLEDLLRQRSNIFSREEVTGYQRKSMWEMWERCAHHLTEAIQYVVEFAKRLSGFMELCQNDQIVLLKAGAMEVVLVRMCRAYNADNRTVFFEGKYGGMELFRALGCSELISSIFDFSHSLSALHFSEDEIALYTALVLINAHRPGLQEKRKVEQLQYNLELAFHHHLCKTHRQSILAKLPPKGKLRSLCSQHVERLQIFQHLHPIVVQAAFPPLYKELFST

## CCn1c(C(C)(C)Oc2ccc(F)cc2F)nc2cc(NC(=O)Cc3ccc(S(=O)(=O)CC)cc3)ccc21 [Compound 1]
[1]; Homo sapiens
  IC50: 350 nM
[2]
  IC50: 4.26 nM
[3]; Homo sapiens
  IC50: 147 nM

## CCS(=O)(=O)c1ccc(CC(=O)Nc2ccc(OC(C)(C)c3ccc(Cl)cc3Cl)cc2)cc1 [Compound 3]
[2]
  IC50: 5.52 nM
[4]
  inhibition of pulmonary inflammation induced by cigarette smoke: significant inhibition
  CS mediated increase in macrophages in BALf: significantly prevented
  CS mediated increase in neutrophils in BALf: significantly prevented
  CS mediated increase in total leukocyte count (TLC) in BALf: significantly prevented

## CCS(=O)(=O)c1ccc(CC(=O)Nc2ccc(OC(C)(C)c3ccc(Cl)cc3Cl)c(F)c2)cc1 [Compound 4]
[2]
  IC50: 5.99 nM

## CCS(=O)(=O)c1ccc(CC(=O)Nc2ccc(C#CC(C)(C)Oc3ccc(Cl)c(F)c3)cc2)cc1 [Compound 5]
[2]
  IC50: 17.4 nM

## CCS(=O)(=O)c1ccc(CC(=O)Nc2ccc(OC3(c4ccc(Cl)cc4Cl)CCOCC3)cc2)cc1 [Compound 9]
[1]; Homo sapiens
  IC50: 2390 nM
[2]
  IC50: 18.4 nM
[4]
  inhibition of pulmonary inflammation induced by cigarette smoke: significant inhibition
  CS mediated increase in macrophages in BALf: significantly prevented
  CS mediated increase in neutrophils in BALf: significantly prevented
  CS mediated increase in total leukocyte count (TLC) in BALf: significantly prevented
[3]; Homo sapiens
  IC50: 360 nM

## CCS(=O)(=O)c1ccc(CC(=O)Nc2ccc(OC3(c4ccc(Cl)cc4Cl)CCOCC3)c(F)c2)cc1 [Compound 10]
[1]
  IC50: 720 nM
[2]
  IC50: 16.2 nM
[3]
  IC50: 367 nM

## CCS(=O)(=O)c1ccc(CC(=O)Nc2ccc(OC(C)(C)c3ncc(Cl)cc3Cl)c(F)c2)cc1 [Compound 11]
[1]
  IC50: 2700 nM
[2]
  IC50: 25.7 nM
[3]
  IC50: 84 nM

## O=C(Nc1c(Cl)cncc1Cl)c1ccc(OC(F)F)c(OCC2CC2)c1 [Roflumilast, reference compound]
[1]; Homo sapiens, at 10 μM, read-out: BAL IL-17 percent inhibition
  inhibition at 10 µM: 6.75%
[3]; Homo sapiens, at 10 μM, read-out: PBMC IL-17 percent inhibition
  inhibition at 10 µM: 20.2%
